The NIST ThermoML archive (doi:10.1021/acs.jced.5b00662)
Numbers after ± are expanded uncertainties.

Experiment: xn = mol fraction of the nth substance listed
Conditions: 100 kPa, Liquid; for speed of sound: Sing-around technique in a fixed-path interferometer; for mass density: Vibrating tube method

CCOCCO [2-ethoxyethan-1-ol] + O
Conditions | mass density, x1 = 0.9426 [kg/m3] | mass density, x1 = 0.949 [kg/m3] | mass density, x1 = 0.9549 [kg/m3] | mass density, x1 = 0.9567 [kg/m3] | mass density, x1 = 0.967 [kg/m3] | speed of sound, x1 = 0.9426 [m/s] | speed of sound, x1 = 0.949 [m/s] | speed of sound, x1 = 0.9549 [m/s] | speed of sound, x1 = 0.9567 [m/s] | speed of sound, x1 = 0.967 [m/s]
283.15 K | 943.675 ± 2 | 943.444 ± 2 | 943.15 ± 2 | 943.112 ± 2 | 942.599 ± 2 | 1364 ± 1.6 | 1365.8 ± 1.6 | 1366.2 ± 1.6 | 1366.8 ± 1.6 | 1361.6 ± 1.8
288.15 K | 939.208 ± 2 | 938.975 ± 2 | 938.68 ± 2 | 938.638 ± 2 | 938.12 ± 2 | 1346.2 ± 1.6 | 1347.5 ± 1.5 | 1347.9 ± 1.6 | 1348.4 ± 1.6 | 1343.5 ± 1.8
293.15 K | 934.713 ± 2 | 934.479 ± 2 | 934.183 ± 2 | 934.14 ± 2 | 933.622 ± 2 | 1328.3 ± 1.5 | 1329.2 ± 1.5 | 1329.6 ± 1.6 | 1330.2 ± 1.6 | 1325.6 ± 1.8
298.15 K | 930.19 ± 2 | 929.953 ± 2 | 929.657 ± 2 | 929.614 ± 2 | 929.099 ± 2 | 1310.5 ± 1.5 | 1311.1 ± 1.5 | 1311.3 ± 1.6 | 1311.8 ± 1.6 | 1307.8 ± 1.7
303.15 K | 925.638 ± 2 | 925.399 ± 2 | 925.102 ± 2 | 925.055 ± 2 | 924.54 ± 2 | 1292.8 ± 1.5 | 1293 ± 1.5 | 1293.2 ± 1.6 | 1292.6 ± 1.6 | 1289.8 ± 1.6
308.15 K | 921.054 ± 2 | 920.815 ± 2 | 920.517 ± 2 | 920.467 ± 2 | 919.951 ± 2 | 1275 ± 1.5 | 1275.3 ± 1.5 | 1275.2 ± 1.6 | 1274.3 ± 1.6 | 1272 ± 1.6
313.15 K | 916.435 ± 2 | 916.194 ± 2 | 915.892 ± 2 | 915.843 ± 2 | 915.328 ± 2 | 1257.4 ± 1.5 | 1257.6 ± 1.5 | 1256.6 ± 1.6 | 1256.1 ± 1.6 | 1254.3 ± 1.6
323.15 K | 907.087 ± 2 | 906.839 ± 2 | 906.54 ± 2 | 906.493 ± 2 | 905.969 ± 2 | 1222.2 ± 1.5 | 1222.2 ± 1.5 | 1220.3 ± 1.5 | 1220.2 ± 1.5 | 1218.9 ± 1.5
333.15 K | 897.58 ± 2 | 897.329 ± 2 | 897.036 ± 2 | 896.985 ± 2 | 896.461 ± 2 | 1187.1 ± 1.5 | 1186.9 ± 1.5 | 1185.1 ± 1.5 | 1184.9 ± 1.5 | 1183.7 ± 1.5
343.15 K | 887.911 ± 2 | 887.628 ± 2 | 887.337 ± 2 | 887.297 ± 2 | 886.774 ± 2 | 1152 ± 1.5 | 1151.1 ± 1.5 | 1150.1 ± 1.5 | 1149.8 ± 1.5 | 1148.6 ± 1.5
